The record followed here is US20230132093A1, “EXTRACELLULAR VESICLE-NLRP3 ANTAGONIST” (Codiak BioSciences, Inc., priority 2019, published 2023).

“Also recorded” adds a separate entry of the source.

One data set relates to mouse NLRP3 transcript. Put plainly: NLRP3 knock down in mouse J774.1 cells, qRT-PCR. In kind it is cell-based. The following applies: 7-point titration. How it is done: In silico analysis of the mouse NLRP3 transcript was used to generate 100 candidate NLRP3 ASOs. Mouse J774.1 cells were treated in vitro with either 5 nM or 20 nM of each candidate NLRP3 ASO. NLRP3 expression was measured using qRT-PCR, and about 30 ASOs yielding a knock down of at least 50% were subjected to further analysis. The top 22 performing ASOs were then subjected to a 7-point titration of various concentrations in mouse J774.1 cells, and NLRP3 expression was again measured by qRT-PCR (FIGS. 4A-4V).
(In general: In qPCR the cycle at which signal appears reflects the starting amount.)

The next data set concerns human NLRP3. Description: IL-1β secretion in cultured primary human MO macrophages after ASO, LPS and ATP. The class given is cell-based. Conditions: for IL-1β induction: 50 nM ASO; for IL-1β secretion relative to ASO scramble controls: most donor cell populations. How it is done: The top-performing ASOs were further analyzed using human monocytes isolated from whole blood. Isolated monocytes were cultured for seven to eight days in M-CSF. Cells were then seeded and cultured overnight. […] Three hours later, the cells were treated with 5 mM ATP. Three hours later, IL-1β levels were measured using AlpaLISA. Cholesterol-tagged ASOs were incubated with PTGFRN-overexpressing exosomes to load the ASOs on the surface of the exosomes.

For data set [1], the system named is primary human MO macrophages. Put plainly: Cell viability of cultured primary human MO macrophages treated with ASO. In kind it is cell-based.
The test system of a further data set is mouse NLRP3 reporter. Description: Knock down of HiBit-fused mouse NLRP3 reporter in HEK reporter cell line. In kind it is cell-based. Conditions: eleven concentrations. The text has this: A HEK reporter cell line was transfected with a mouse NLRP3 reporter contruct (FIG. 5A) to assay NLRP3 knockdown at eleven concentrations for the top five performing mouse ASOs (ASO Nos. 16, 19, 70, 98, and 43; FIG. 5B).
(With HiBiT, luminescence reflects the tagged protein that the partner subunit can reach.)

The subject of another data set is NLRP3 pathway. Put plainly: IL-1β secretion in BMDM after ASO-RNAiMAX transfection, LPS and ATP. In kind it is cell-based, mouse. Conditions: 2 days post transfection, 200 ng/mL LPS 3 h, 5 mM ATP 3 h. How it is done:
Bone marrow-derived macrophages (BMDM) can be used to determine whether knock down of NLRP3 has a downstream effect on activation of the NLRP3 pathway (FIGS. 6A-6B). BMDMs were transfected with increasing concentrations of the top five performing mouse ASOs (ASO Nos. 16, 19, 70, 98, and 43) as part of an ASO-RNAiMAX complex. Two days post transfection, the cells BMDM were treated with 200 ng/mL LPS. Three hour later, the BMDM were treated with 5 mM ATP. Three hours after ATP treatment, IL-1 β secretion was measured.

For the next data set, the system named is BMDM. Put plainly: Viability of BMDM treated with LPS, ATP and mNLRP3 ASOs. In kind it is cell-based, mouse.

In the case of “ASO No. 48: mouse NLRP3 ASO, SEQ ID NO: 209, Seq Start 1262 (antisense TCCAAGGCTACCGGCCTCGT; chemistry not fully specified)”, in the data set with mouse NLRP3 transcript, the IC50 is 60.6 nM and the “Lowest % value (remaining NLRP3 transcript as a percent of starting levels)” value is given as 65.00%.
As to “ASO 3094: human NLRP3 ASO, SEQ ID NO: 174 (antisense GTCGAAGCAGCACTCATGCG; chemistry not given here)”, the IL-1β induction entry with human NLRP3 (2 nM, 10 nM) is recorded as “dose dependent decrease”. In addition, the “IL-1β secretion relative to ASO scramble controls” value with human NLRP3 (2 nM) and with human NLRP3 (10 nM) was “reduced IL-1β secretion” in each case. Also, the Cell viability result in data set [1] (2 nM ASO) was “remained stable”; in data set [1] (10 nM ASO) it was “remained stable”; in data set [1] (50 nM ASO), “dropped”.
As to “ASO No. 55: mouse NLRP3 ASO, SEQ ID NO: 210, Seq Start 1740 (antisense CTCGCAGTCCACTTCCTTCT; chemistry not fully specified)”, in the data set with mouse NLRP3 transcript, the IC50 amounted to 63.1 nM and the “Lowest % value (remaining NLRP3 transcript as a percent of starting levels)” value was found to be 59.17%.
On to “ASO No. 70: mouse NLRP3 ASO, SEQ ID NO: 203, Seq Start 2235 (antisense CGTTTTGACCCTATGACAGT; chemistry not given here)”, for which, in the data set with mouse NLRP3 transcript, the half-maximal inhibitory concentration (IC50) was determined as 13.4 nM and the “Lowest % value (remaining NLRP3 transcript as a percent of starting levels)” value came to 30.43%. Moreover, the “Knock down of NLRP3 in the HEK reporter cell line” value (“Knock down of NLRP3” for short) with mouse NLRP3 reporter is given as “dose-dependent knock down”. Moreover, the IL-1β secretion entry in the data set with NLRP3 pathway is given as “decreased IL-1β secretion at all doses tested”. Besides, the Viability result in the data set on BMDM is listed as “increased viability”.
Consider “ASO No. 16: mouse NLRP3 ASO, SEQ ID NO: 201, Seq Start 229 (antisense GCTTGCAACGGACACTCGTC; chemistry not given here)”, for which, in the data set with mouse NLRP3 transcript, the IC50 is 6.56 nM and the “Lowest % value (remaining NLRP3 transcript as a percent of starting levels)” value amounted to 36.10%. In addition, the “Knock down of NLRP3” value in the data set on mouse NLRP3 reporter is on record as “dose-dependent knock down”. The IL-1β secretion result with NLRP3 pathway is given as “decreased IL-1β secretion at all doses tested”. For the same substance, the Viability result in the data set on BMDM is “increased viability”.
For the substance “ASO No. 11: mouse NLRP3 ASO, SEQ ID NO: 206, Seq Start 2961 (antisense GCTTCGTAGATAGAGGTGTG; chemistry not fully specified)”, in the data set with mouse NLRP3 transcript, the midpoint of inhibition, the IC50, lay at 28.2 nM and the “Lowest % value (remaining NLRP3 transcript as a percent of starting levels)” value stood at 30.70%.
In the case of “ASO 2672: human NLRP3 ASO, SEQ ID NO: 166 (antisense AGTCCATGGCCCTTTGCACG; chemistry not given here)”, the IL-1β induction result with human NLRP3 (2 nM, 10 nM) is recorded as “dose dependent decrease”. Besides, the “IL-1β secretion relative to ASO scramble controls” value in the data set with human NLRP3 (2 nM) and with human NLRP3 (10 nM) was “reduced IL-1β secretion” in each case. Moreover, the results for the Cell viability result in data set [1] (2 nM ASO), in data set [1] (10 nM ASO) and in data set [1] (50 nM ASO) were “remained stable”, “remained stable” and “dropped”, respectively.
Consider “ASO No. 41: mouse NLRP3 ASO, SEQ ID NO: 208, Seq Start 984 (antisense CTCTCGGCAGTGGATAAAGA; chemistry not fully specified)”, for which, in the data set on mouse NLRP3 transcript, the IC50 worked out at 57.3 nM and the “Lowest % value (remaining NLRP3 transcript as a percent of starting levels)” value was 52.30%.
Take “ASO No. 98: mouse NLRP3 ASO, SEQ ID NO: 204, Seq Start 3761 (antisense CGGGATGGTCAGTTAACAGG; chemistry not given here)”: in the data set with mouse NLRP3 transcript, the half-inhibitory concentration (IC50) is 14.7 nM and the “Lowest % value (remaining NLRP3 transcript as a percent of starting levels)” value came out at 42.17%. The “Knock down of NLRP3” value in the data set with mouse NLRP3 reporter (listed as 98) is on record as “dose-dependent knock down; also recorded: most robust knock down”. Moreover, in the data set on NLRP3 pathway, the IL-1β secretion result is listed as “decreased IL-1β secretion at all doses tested”. Moreover, the Viability entry in the data set on BMDM is reported as “increased viability”.
Regarding “ASO No. 43: mouse NLRP3 ASO, SEQ ID NO: 205, Seq Start 1132 (antisense CGTCAAAGGCCCCTTGTAGC; chemistry not given here)”, in the data set with mouse NLRP3 transcript, the IC50 turned out to be 15.4 nM and the “Lowest % value (remaining NLRP3 transcript as a percent of starting levels)” value is on record as 48.37%. Besides, the “Knock down of NLRP3” value with mouse NLRP3 reporter is listed as “dose-dependent knock down”. Besides, the IL-1β secretion entry with NLRP3 pathway is listed as “decreased IL-1β secretion at all doses tested”. Also, the Viability entry in the data set on BMDM was “increased viability”.
The like results for “ASO No. 19: mouse NLRP3 ASO, SEQ ID NO: 202, Seq Start 318 (antisense GATACAGCCTTTCTCGGGCG; chemistry not given here)” were, in that order, 12.7 nM, 36.10%, “dose-dependent knock down”, “decreased IL-1β secretion at all doses tested” and “increased viability”.
As for “ASO 1664: human NLRP3 ASO, SEQ ID NO: 143 (antisense CGTCAAAGGCACCTTGCAGC; chemistry not given here)”, the IL-1β induction result in the data set with human NLRP3 (2 nM, 10 nM) is listed as “dose dependent decrease”. The “IL-1β secretion relative to ASO scramble controls” value with human NLRP3 (2 nM) and with human NLRP3 (10 nM) was “reduced IL-1β secretion” each time. Moreover, the Cell viability result in data set [1] (2 nM ASO) is “remained stable”; in data set [1] (10 nM ASO), “remained stable”; in data set [1] (50 nM ASO) it was “dropped”.
Turning to “ASO No. 21: mouse NLRP3 ASO, SEQ ID NO: 207, Seq Start 392 (antisense TCGCCATTGAAGTCAATCAT; chemistry not fully specified)”, in the data set with mouse NLRP3 transcript, the half-maximal inhibitory concentration (IC50) came to 30.1 nM and the “Lowest % value (remaining NLRP3 transcript as a percent of starting levels)” value turned out to be 33.07%.

The IC50 is the point on the concentration scale where inhibition reaches its midpoint. A high value points to lower potency.
